# Reference: ChEMBL document CHEMBL3124920, “Substituted Benzofurans as Inhibitors of HCV NS5B Protein” (ACS Med Chem Lett, 2014)
# What was measured:
# Hepatitis C virus = assay: Antiviral activity against Hepatitis C virus genotype 1b infected in human HuH7 cells after 3 days by luciferase reporter gene assay; assay type: functional, organism-based, Hepacivirus hominis; settings: Huh-7, 72 h
# [1] = Inhibition of HCV NS5B polymerase after 4 hrs by on-bead solid phase homogeneous assay; design: species or system Hepacivirus hominis
EC50 (Hepatitis C virus),IC50 [1],SMILES
0.009 µM,,CCN(c1cc2oc(-c3ccc(F)cc3)c(-c3ncc[nH]3)c2c(F)c1-c1cc(C(=O)NC2(c3ncccn3)CC2)c(OC)cc1C)S(C)(=O)=O
0.0072 µM,,CCNc1cc2oc(-c3ccc(F)cc3)c(-c3ncc[nH]3)c2c(F)c1-c1cc(C(=O)NC2(c3ncccn3)CC2)c(OC)cc1C
0.03 µM,0.03 µM,COc1cc(C)c(-c2ccc3oc(-c4ccc(F)cc4)c(-c4ncc[nH]4)c3c2F)cc1C(=O)NC1(c2ncccn2)CC1
